“And” between values parts separate entries of the source, which are not always exact repeats. Equal values may be shown once. Where a name gives a salt, the structure may show the parent alone.

In this test the target is Nischarin (Rattus norvegicus, UniProt Q4G017).
Chain of Nischarin (Q4G017 whole entry): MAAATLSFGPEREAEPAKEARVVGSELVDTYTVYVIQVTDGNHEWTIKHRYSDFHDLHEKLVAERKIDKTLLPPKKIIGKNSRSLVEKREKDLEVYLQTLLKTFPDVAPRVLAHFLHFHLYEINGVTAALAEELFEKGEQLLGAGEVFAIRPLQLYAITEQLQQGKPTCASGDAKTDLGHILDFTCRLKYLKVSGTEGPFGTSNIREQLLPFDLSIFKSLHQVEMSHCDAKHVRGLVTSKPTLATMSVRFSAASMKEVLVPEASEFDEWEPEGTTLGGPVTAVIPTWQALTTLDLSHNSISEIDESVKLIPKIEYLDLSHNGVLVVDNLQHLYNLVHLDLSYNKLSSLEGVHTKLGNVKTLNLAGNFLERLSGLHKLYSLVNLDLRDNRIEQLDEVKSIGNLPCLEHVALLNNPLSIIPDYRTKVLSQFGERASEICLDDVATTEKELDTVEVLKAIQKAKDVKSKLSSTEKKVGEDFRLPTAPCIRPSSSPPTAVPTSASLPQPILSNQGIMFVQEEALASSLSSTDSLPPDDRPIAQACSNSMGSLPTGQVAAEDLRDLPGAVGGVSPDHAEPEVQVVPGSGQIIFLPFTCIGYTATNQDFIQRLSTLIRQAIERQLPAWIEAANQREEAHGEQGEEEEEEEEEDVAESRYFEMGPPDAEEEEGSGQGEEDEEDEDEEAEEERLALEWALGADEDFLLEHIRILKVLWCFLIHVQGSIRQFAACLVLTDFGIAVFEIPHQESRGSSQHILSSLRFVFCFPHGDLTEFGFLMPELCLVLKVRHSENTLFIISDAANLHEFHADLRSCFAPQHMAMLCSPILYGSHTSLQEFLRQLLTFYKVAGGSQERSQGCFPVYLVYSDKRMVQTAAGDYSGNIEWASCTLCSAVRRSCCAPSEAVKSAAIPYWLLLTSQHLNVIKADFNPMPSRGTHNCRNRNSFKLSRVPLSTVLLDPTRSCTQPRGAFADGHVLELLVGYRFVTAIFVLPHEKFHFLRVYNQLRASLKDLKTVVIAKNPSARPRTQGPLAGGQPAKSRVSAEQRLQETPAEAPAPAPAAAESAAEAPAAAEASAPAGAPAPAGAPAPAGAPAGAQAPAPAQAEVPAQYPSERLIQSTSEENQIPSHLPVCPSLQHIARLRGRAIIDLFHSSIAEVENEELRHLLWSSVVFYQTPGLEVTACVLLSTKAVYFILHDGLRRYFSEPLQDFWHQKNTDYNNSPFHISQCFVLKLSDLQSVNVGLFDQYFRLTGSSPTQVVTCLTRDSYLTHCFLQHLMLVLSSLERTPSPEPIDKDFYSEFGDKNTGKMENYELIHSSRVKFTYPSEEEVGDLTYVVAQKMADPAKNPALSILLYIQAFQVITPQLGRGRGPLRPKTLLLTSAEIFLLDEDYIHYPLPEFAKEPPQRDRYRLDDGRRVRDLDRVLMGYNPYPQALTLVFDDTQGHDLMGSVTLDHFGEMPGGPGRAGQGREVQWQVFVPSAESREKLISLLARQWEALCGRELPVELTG
For orientation: Ki means a measure of affinity in units of concentration, obtained from inhibition or displacement. Consider `NCCc1c[nH]cn1` [[3H]histamine], for which the Ki was greater than 10 µM.

On to `CCCN1CCC[C@@H](c2cccc(O)c2)C1` [Preclamol], for which the Ki was greater than 10 µM. On to `O=C(CCCN1CCC(O)(c2ccc(Cl)cc2)CC1)c1ccc(F)cc1` [4-[4-(4-Chloro-phenyl)-4-hydroxy-piperidin-1-yl]-1-(4-fluoro-phenyl)-butan-1-one;propionate(HCl)], for which the inhibitory constant (Ki) worked out at 0.5 µM. With `CC(C)=CCN1CC[C@@]2(C)c3cc(O)ccc3C[C@@H]1[C@@H]2C` [Talwin], the Ki was greater than 10 µM. In turn, `CN/C([CH-][N+](=O)[O-])=[NH+]\CCSCc1ccc(CN(C)C)o1` displayed a Ki greater than 10 µM. As for `N=C(N)NCCCCN`, the figure is greater than 10 µM; as for `C[C@]12NC(Cc3ccccc31)c1ccccc12` [(5S,10S)-(+)-5-methyl-10,11-dihydro-5Hdibenzo[a,d]cyclohepten-5,10-imine], greater than 10 µM. As for `COc1nc(C)nc(Cl)c1N=C1NCCN1` [(4-Chloro-6-methoxy-2-methyl-pyrimidin-5-yl)-imidazolidin-2-ylidene-amine], the figure is greater than 10 µM; as for `Cc1ccccc1NC(=N)Nc1ccccc1C` [CAS_97-39-2], 0.93 µM; as for `Clc1cccc(Cl)c1N=C1NCCN1` [2-(2,6-dichloroanilino)-2-imidazoline], 2.52 µM and > 10 µM. Consider `COC(=O)[C@@H]1[C@H]2C[C@H]3c4[nH]c5ccccc5c4CCN3C[C@@H]2CC[C@@H]1O` [yohimbic acid methyl ester], for which the inhibition constant (Ki) is greater than 10 µM.
